The source made the active and inactive calls.

Experiment [1] is described as follows: inhibitors of SNCA 5'UTR-driven reporter translation, confirmation, H4 neuroglioma cells, luminescence (AID 1988). In kind it is functional, cell-based.
A short description of experiment [2]: Luminescence-based counterscreen assay for KLF5 inhibitors: dose response cell-based high throughput screening assay to identify cytotoxic compounds using the IEC-6 intestinal epithelial cell line. [Related pubchem assays: 1700 (Primary screen.), 1834 (Confirmation screen.), 1858 (Summary AID.), 1905 (Counterscreen.)]. In kind it is functional.
For a further experiment, the target named is T1, Caspase-6 (Homo sapiens, UniProt P55212).
T1 sequence (P55212 whole entry): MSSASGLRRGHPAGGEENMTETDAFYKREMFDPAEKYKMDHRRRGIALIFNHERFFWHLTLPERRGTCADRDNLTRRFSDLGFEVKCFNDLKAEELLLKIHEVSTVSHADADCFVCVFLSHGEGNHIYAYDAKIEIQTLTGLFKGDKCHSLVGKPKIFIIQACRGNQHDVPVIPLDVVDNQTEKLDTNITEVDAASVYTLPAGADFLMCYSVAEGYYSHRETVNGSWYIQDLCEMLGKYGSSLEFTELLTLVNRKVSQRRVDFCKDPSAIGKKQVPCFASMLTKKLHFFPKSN
The experiment in a line: human caspase-6 inhibitors, dose response, biochemical, VEID-R110 fluorescence, cherry-pick (AID 720632).

Experiment [3] in a line: inhibitors of intracellular T. cruzi replication, confirmation, NIH3T3 host cells, beta-gal luminescence (AID 2044).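 Also: intracellular parasites grown in NIH/3T3 mouse fibroblasts as host cells; luminescent beta-galactosidase reporter signal from transgenic T. cruzi replicating inside host cells; inhibitors lower the luminescence signal.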 In kind it is functional, cell-based.
Experiment [4] in a line: C. albicans growth with fluconazole, confirmation, fluorescence, retest (AID 2467). In kind it is functional, cell-based.
The target of a further experiment is Nonstructural protein 1 (Influenza A virus, UniProt Q194T2). In kind it is functional, Influenza A virus (A/California/07/2009(H1N1)).
Experiment [5] in a line: inhibitors of firefly luciferase expression or activity, dose response, H4 neuroglioma cells, luminescence (AID 1990). In kind it is functional, cell-based.
A short description of experiment [6]: NIH-3T3 fibroblast cytotoxicity, dose response, cytotoxicity control, cell-based, fluorescence, Alamar Blue, secondary assay (AID 2327).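 Also: NIH-3T3 mouse fibroblasts cultured with fluconazole at 8 µg/mL.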 In kind it is functional.
Experiment [7] is described as follows: Luminescence Cell-Based Dose Response HTS to Identify Inhibitors of 5'UTR Stem-Loop Driven Prion Protein mRNA Translation in H4 Neuroglioblastoma Cells. [Related pubchem assays: 1827 (Project Summary), 1813 (Primary HTS)]. In kind it is functional.
A further experiment has as its system INS1. The experiment in a line: beta cell apoptosis inhibitors, cytokine rescue, dose response, luminescence, retest (AID 449756).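 Also: cell death triggered by IL-1 beta plus TNF-alpha plus IFN-gamma mixture; protective hits raise ATP signal compared with cytokine alone wells.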 In kind it is functional, cell-based. The note with it: Rattus norvegicus.
A short description of experiment [8]: cytotoxicity toward NIH3T3 fibroblasts, dose response, counter-screen, cell-based, ATP luminescence, mouse fibroblasts (AID 2010).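 Also: cells exposed to compound for about 90 hours before reading.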 In kind it is functional.
The target of experiment [9] is T2, Neuropeptide Y receptor type 2 (Homo sapiens, UniProt P49146).
T2 sequence (P49146 whole entry): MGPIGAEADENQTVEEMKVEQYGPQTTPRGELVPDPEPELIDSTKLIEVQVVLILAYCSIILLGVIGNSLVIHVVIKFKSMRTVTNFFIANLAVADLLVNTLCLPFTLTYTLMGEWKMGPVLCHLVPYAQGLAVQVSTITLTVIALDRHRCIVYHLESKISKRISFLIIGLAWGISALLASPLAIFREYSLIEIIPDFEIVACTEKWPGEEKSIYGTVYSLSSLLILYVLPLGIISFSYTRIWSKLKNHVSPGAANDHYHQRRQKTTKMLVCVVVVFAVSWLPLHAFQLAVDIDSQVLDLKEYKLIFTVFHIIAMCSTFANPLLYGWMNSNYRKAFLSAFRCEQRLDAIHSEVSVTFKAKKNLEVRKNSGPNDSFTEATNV
Nature of the experiment: Fluorescence-based cell-based high-throughput dose response assay for agonists of NPY-Y2. [Related pubchem assays: 1703 (Screening assay (CNGC inhibitors).), 1359 (Screening assay (NPY-Y2 potentiators or agonists).), 1304 (Screening assay (NPY-Y1 potentiators or agonists).), 1710 (Screening assay (NPY-Y2 agonists).), 1791 (Summary AID.)]. In kind it is functional.

In experiment [10] the target is T3, Neuropeptide Y receptor type 1 (Homo sapiens, UniProt P25929).
T3 sequence (P25929 whole entry): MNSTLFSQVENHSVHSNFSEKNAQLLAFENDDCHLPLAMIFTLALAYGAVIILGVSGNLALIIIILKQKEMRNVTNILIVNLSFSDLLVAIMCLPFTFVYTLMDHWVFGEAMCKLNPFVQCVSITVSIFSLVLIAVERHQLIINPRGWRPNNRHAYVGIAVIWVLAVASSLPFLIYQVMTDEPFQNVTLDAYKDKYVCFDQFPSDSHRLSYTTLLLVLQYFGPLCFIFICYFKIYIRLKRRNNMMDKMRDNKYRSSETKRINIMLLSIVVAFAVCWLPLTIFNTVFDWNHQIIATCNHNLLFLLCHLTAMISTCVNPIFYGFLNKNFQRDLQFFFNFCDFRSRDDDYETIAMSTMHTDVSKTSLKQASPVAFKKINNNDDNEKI
Nature of the experiment: Fluorescence-based counterscreen for agonists of NPY-Y2: cell-based high-throughput dose response assay for agonists of NPY-Y1. In kind it is functional.

The subject of a further experiment is HEK293. The experiment in a line: Fluorescence-based counterscreen for potentiators or agonists of NPY-Y2: cell-based high-throughput dose response assay to identify inhibitors of cyclic nucleotide gated ion channel (CNGC) activity. In this assay, the parental HEK293 cell line transfected with a cyclic-nucleotide gated ion channel (CNGC)-based cAMP sensor is used to measure inhibition of isoproterenol-induced CNGC activity by test compound. In kind it is functional. The note with it: Homo sapiens.

The nature of experiment [11]: HeLa cell cytotoxicity, dose response, cytotoxicity control for MgcRacGAP inhibitor project (AID 624300). In kind it is functional.
In experiment [12] the target is Matrix metalloproteinase-14 (Homo sapiens, UniProt P50281). Nature of the experiment: Dose Response confirmation of uHTS hits for a small molecule inhibitors of MT1-MMP activation in a fluorescence assay set 1. In kind it is functional.
The target in experiment [13] is T4, Kappa-type opioid receptor (Homo sapiens, UniProt P41145). In kind it is functional.
The target in a further experiment is Beta-galactosidase (Escherichia coli, UniProt Q8VNN2). In kind it is functional.
Experiment [14] can be described thus: enhancers of respiration in Yfh1-depleted yeast, dose response, Friedreich's ataxia, plus single-dose screen (AID 1465).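 Also: yeast depleted of Yfh1p frataxin homolog grown on glycerol needing respiration; WST-1 tetrazolium dye reduction as measure of cellular dehydrogenase metabolic activity.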 In kind it is functional.
The target in experiment [15] is T5, Rac GTPase-activating protein 1 (Homo sapiens, UniProt Q9H0H5).
T5 sequence (Q9H0H5 whole entry): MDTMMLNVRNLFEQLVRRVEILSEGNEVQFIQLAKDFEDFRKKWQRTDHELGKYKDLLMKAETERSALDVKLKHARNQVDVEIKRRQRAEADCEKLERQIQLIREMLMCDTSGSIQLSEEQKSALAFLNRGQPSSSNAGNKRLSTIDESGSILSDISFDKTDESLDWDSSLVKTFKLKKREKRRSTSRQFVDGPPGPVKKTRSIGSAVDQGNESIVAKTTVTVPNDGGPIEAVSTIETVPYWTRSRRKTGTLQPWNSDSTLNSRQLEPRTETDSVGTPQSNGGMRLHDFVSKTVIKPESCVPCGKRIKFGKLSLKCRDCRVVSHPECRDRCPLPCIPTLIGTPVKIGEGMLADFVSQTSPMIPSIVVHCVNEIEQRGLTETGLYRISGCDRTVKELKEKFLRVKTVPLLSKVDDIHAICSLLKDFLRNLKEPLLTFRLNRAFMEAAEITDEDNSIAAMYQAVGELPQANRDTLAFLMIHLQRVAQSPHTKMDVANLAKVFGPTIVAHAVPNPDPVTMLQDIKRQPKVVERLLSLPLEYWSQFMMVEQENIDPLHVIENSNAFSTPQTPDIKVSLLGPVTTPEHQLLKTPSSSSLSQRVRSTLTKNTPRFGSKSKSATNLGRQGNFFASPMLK
The experiment in a line: MgcRacGAP GTPase-activating activity inhibitors, confirmation, biochemical, ADP Hunter fluorescence, primary and confirmatory (AID 624330). In kind it is functional.

Experiment [16] has as its target T4, Kappa-type opioid receptor. In kind it is functional. This is another data set of the same source.
Experiment [17] addresses T6, Endoribonuclease toxin MazF (Escherichia coli K-12, UniProt P0AE70).
T6 sequence (P0AE70 whole entry): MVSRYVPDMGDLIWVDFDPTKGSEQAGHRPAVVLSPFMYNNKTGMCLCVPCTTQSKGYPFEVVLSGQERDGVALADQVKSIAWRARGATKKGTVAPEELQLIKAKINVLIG
Nature of the experiment: MazF toxin RNase activators, dose response, biochemical, fluorescence, single-stranded RNA substrate, uHTS hits (AID 588481). In kind it is functional.

The target of experiment [18] is T7, Zinc finger protein mex-5 (Caenorhabditis elegans, UniProt Q9XUB2).
T7 sequence (Q9XUB2 whole entry): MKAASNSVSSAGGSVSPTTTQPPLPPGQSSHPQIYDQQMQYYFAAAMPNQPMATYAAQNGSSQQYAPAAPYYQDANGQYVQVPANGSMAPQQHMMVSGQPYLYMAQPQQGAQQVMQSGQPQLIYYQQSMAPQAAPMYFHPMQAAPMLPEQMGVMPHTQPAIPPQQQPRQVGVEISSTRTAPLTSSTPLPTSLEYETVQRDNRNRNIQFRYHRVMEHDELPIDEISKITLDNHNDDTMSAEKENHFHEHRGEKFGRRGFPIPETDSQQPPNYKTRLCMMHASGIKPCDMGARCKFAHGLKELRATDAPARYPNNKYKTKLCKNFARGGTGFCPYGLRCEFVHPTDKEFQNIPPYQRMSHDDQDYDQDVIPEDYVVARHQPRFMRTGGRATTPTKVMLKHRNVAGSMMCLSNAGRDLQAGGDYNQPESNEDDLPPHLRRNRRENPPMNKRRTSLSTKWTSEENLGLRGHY
The experiment in a line: MEX-5/TCR-2 RNA interaction inhibitors, dose response, biochemical, C. elegans, fluorescence polarization (AID 1960).

Experiment [19] addresses T6, Endoribonuclease toxin MazF. Nature of the experiment: fluorescent RNA oligo signal without MazF, dose response, counter-screen for MazEF activator project, biochemical, fluorescence, single-stranded RNase substrate (AID 588502). In kind it is functional.
For experiment [20], the target named is T8, Heat shock 70 kDa protein 1A (Homo sapiens, UniProt P0DMV8). The experiment in a line: Hsp70 inhibitors, biochemical, TR-FRET (AID 786).
Experiment [21] addresses T8, Heat shock 70 kDa protein 1A. Nature of the experiment: Hsp70 inhibitors, probe displacement, primary screen, biochemical, fluorescence polarization (AID 583).
Experiment [22] deals with T9, RNA-binding protein pos-1 (Caenorhabditis elegans, UniProt G5EF15).
T9 sequence (G5EF15 whole entry): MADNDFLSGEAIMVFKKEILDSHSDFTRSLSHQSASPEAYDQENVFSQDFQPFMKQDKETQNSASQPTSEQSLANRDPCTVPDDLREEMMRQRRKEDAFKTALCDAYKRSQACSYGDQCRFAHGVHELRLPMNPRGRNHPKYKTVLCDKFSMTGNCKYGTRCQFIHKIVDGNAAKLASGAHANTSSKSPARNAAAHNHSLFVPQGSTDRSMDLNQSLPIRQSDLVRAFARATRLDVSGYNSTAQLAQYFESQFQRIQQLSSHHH
Nature of the experiment: inhibitors of POS-1/mex-3 RNA binding, dose response, biochemical, fluorescence polarization (AID 1964).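 Also: purified POS-1 fused to maltose binding protein made in E. coli; potency of compounds blocking POS-1 binding to fluorescent RNA.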

A short description of experiment [23]: inhibitors of Bluetongue virus cytopathic effect, confirmation, arbovirus, BSR cells (AID 1250).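 Also: protection from viral cytopathic effect measured as cell viability by ATP luminescence.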 In kind it is functional.

T4 sequence (P41145 whole entry): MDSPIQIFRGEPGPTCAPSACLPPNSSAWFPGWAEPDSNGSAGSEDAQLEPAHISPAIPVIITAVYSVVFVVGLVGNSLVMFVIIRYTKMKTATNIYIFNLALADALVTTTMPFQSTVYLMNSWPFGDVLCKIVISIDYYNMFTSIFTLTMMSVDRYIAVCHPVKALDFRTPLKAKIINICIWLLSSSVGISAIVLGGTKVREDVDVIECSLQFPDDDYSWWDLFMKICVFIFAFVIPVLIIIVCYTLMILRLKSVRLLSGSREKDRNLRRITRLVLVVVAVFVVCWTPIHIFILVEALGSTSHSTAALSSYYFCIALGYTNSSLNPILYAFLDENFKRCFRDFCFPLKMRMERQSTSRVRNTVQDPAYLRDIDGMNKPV
T8 sequence (P0DMV8 whole entry): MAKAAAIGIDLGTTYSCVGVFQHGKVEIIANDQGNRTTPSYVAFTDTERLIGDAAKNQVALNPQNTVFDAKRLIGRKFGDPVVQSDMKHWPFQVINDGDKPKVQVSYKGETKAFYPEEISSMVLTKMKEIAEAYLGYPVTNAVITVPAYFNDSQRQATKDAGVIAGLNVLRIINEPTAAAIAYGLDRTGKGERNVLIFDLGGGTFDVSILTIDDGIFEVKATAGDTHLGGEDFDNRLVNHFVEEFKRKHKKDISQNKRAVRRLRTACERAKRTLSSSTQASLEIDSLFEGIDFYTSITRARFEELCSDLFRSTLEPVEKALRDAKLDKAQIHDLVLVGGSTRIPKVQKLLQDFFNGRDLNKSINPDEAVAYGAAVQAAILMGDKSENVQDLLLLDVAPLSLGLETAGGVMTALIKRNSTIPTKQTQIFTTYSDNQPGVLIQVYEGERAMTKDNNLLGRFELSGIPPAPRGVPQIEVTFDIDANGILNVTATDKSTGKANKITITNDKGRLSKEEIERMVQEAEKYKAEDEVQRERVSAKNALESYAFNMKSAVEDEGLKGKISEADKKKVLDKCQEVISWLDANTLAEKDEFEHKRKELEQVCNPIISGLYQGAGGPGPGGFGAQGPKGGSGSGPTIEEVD
Chain of Beta-galactosidase (Q8VNN2 whole entry): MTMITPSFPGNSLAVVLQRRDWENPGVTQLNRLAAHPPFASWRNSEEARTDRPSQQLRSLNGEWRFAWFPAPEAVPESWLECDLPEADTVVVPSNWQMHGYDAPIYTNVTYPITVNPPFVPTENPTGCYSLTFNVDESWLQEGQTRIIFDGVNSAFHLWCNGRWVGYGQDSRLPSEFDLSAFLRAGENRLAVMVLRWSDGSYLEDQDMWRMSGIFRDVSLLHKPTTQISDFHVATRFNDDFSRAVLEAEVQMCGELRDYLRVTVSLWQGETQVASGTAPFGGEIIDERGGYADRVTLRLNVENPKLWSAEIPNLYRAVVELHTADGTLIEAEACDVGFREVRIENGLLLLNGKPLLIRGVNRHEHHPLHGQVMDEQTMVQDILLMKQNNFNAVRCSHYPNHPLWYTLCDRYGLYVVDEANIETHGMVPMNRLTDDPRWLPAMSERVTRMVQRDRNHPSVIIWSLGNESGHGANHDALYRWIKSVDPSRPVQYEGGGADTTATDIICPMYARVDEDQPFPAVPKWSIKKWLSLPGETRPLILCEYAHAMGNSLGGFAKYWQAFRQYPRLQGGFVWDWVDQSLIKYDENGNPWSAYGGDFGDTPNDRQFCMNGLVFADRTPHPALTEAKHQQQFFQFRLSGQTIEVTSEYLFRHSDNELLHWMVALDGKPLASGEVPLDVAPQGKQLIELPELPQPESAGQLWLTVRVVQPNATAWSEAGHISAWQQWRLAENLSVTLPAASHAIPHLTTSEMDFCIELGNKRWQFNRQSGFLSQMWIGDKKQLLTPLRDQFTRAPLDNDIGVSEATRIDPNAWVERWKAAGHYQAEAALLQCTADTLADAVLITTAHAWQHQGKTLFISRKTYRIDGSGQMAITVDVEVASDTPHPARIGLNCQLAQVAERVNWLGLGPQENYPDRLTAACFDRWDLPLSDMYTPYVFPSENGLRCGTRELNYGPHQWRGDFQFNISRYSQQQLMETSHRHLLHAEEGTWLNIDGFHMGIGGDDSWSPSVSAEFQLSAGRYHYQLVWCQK
Chain of Nonstructural protein 1 (Q194T2 whole entry): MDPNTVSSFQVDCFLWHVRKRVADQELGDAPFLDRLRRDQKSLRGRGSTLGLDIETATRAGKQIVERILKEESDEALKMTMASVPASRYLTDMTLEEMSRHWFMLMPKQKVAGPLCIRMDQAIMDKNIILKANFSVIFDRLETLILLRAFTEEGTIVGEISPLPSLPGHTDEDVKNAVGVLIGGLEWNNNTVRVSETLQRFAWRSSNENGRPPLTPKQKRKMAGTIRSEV

As to `NS(=O)(=O)c1ccc(N=Nc2ccc(O)c3ncccc23)cc1`, the EC50 in experiment [1] is 5.67 µM (active); in experiment [3], 4.07 µM (active); in experiment [4], 1.95 µM (active); in [5], 9.04 µM (active); in experiment [6] it was 32.2 µM (active); in experiment [7], 8.29 µM (active). The EC50 in experiment [8] is 10.4 µM (active). The values for the IC50 (in experiment [2]; on Nonstructural protein 1) were 10.7 µM (not active) and 7.62 µM (active), respectively. Besides, the AC50 was 1.58 µM (active) at Caspase-6 and 3.45 µM (active) in the experiment on INS1.
For `O=C(Cc1ccc(Cl)cc1)Nc1cccc(S(=O)(=O)Nc2ccccc2F)c1`, the figures for the 50% effective concentration (EC50) (in [9]; in [10]; in the experiment with HEK293) were 15.7 µM (not active), 15.7 µM (not active) and 10.2 µM (not active), respectively.
On to `CC1=NN(c2ccccc2)C(=O)/C1=C/C=C/C=C/N(C)C`, for which the CC50 in [11] is 100 µM (active). The IC50 was 23.3 µM (inactive) in experiment [12], 21.6 µM (inactive) in experiment [13], 68.1 µM (active) in experiment [15] and more than 32 µM in experiment [16]. In addition, the EC50 on Beta-galactosidase was 14.8 µM (active); in experiment [14] it was > 100 µM (active).
As for `CCOn1c(=O)c(-c2cc3ccccc3o2)[n+]([O-])c2ccccc21`, the EC50 in experiment [17] was > 99 µM (inactive); in experiment [18] it was 180 µM (inconclusive); in [19] it was 30.9 µM (inactive); in experiment [22], 13.4 µM (inconclusive). The IC50 in [20] and in experiment [21] was > 100 µM (not active) throughout.
Turning to `Cc1ccc(C2C=C(c3ccc4c(c3)OCO4)Nc3ncnn32)cc1` (stereo not drawn), the IC50 in [23] is 38.9 µM (active).
